According to ChEMBL document CHEMBL1137041, “Novel epicatechin derivatives with antioxidant activity modulate interleukin-1beta release in lipopolysaccharide-stimulated human blood” (Bioorg Med Chem Lett, 2004):

Experiment: In vitro antioxidant effect by the inhibition of AAPH-induced lysis of human red blood cells (RBC)
Type: functional

SMILES | IC50
NCCS[C@H]1c2c(O)cc(O)cc2O[C@H](c2ccc(O)c(O)c2)[C@@H]1O | 89.4 µM
N[C@@H](CS[C@H]1c2c(O)cc(O)cc2O[C@H](c2ccc(O)c(O)c2)[C@@H]1O)C(=O)O | 74.9 µM
Oc1cc(O)c2c(c1)O[C@H](c1ccc(O)c(O)c1)[C@H](O)C2 [(-)-EPICATECHIN] | 120 µM
